Results on 28 compounds are retold here after patent US20230044787A1, “TRICYCLE DIHYDROIMIDAZOPYRIMIDONE DERIVATIVE, PREPARATION METHOD THEREOF, PHARMACEUTICAL COMPOSITION AND USE THEREOF” (priority 2019, published 2023).

Structures are written as SMILES.

A word on the IC50: it is the concentration that gives 50% inhibition.

The first assay concerns the target T1, Lp-PLA2 (Homo sapiens, UniProt Q13093).
T1 construct: aliquoted and thawed 40 μL of pooled human plasma was previously added; from tissue; host or cells: pooled human plasma
T1 sequence (Q13093 22-441): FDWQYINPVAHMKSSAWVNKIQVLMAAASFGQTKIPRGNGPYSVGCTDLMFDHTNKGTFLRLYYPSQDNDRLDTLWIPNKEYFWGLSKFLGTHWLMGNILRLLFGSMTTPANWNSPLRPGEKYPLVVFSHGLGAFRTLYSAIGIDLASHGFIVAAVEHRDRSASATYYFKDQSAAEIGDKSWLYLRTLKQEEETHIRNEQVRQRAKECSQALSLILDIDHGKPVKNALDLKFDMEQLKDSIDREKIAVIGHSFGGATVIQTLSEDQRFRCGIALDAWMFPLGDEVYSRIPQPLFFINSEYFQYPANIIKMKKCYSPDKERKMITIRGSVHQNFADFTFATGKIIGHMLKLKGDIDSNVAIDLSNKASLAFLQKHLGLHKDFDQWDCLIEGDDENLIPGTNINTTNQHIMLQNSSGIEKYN
Briefly: Lipoprotein-associated phospholipase A2 (Lp-PLA2) human plasma assay (Thio-PAF assay). Particulars: Comparison of activity data (I); pooled human plasma, 2-thio-PAF substrate, 30-min pre-incubation. The format is biochemical.
Consider `CC12COCCN1c1cc(OCc3cc(F)c(F)c(F)c3)nc(=O)n1C2` (centres unmarked) [Example 86], for which the IC50 was found to be 6.1 nM.

Staying with this assay, now noted: Lp-PLA2 human plasma assay (Thio-PAF), pooled human plasma, 30-min pre-incubation at room temperature.
Turning to `CC12CCCCN1c1cc(OCCc3ccc(Oc4ccc(Cl)c(C(F)(F)F)c4)cc3)nc(=O)n1C2` (centres unmarked) [Example 73, 3-(4-(4-chloro-3-(trifluoromethyl)phenoxy)phenethoxy)-9a-methyl-6,7,8,9,9a,10-hexahydro-1H-pyrido[1′,2′:3,4]imidazo [1,2-c]pyrimidin-1-one], the IC50 amounted to 4.8 nM.

On to `CC12CCCCN1c1cc(OCc3ccc(F)c(F)c3)nc(=O)n1C2` (centres unmarked) [Example 74, 3-((3,4-difluorobenzyl)oxy)-9a-methyl-6,7,8,9,9a,10-hexahydro-1H-pyrido [1′,2′:3,4]imidazo[1,2-c]pyrimidin-1-one], for which the IC50 came to 22.3 nM.

As for `CCC12CCCCN1c1cc(OCc3cc(F)c(Oc4ccnc(C(F)(F)F)c4)c(F)c3)nc(=O)n1C2` (centres unmarked) [Example 75, 3-((3,5-difluoro-4-((2-(trifluoromethyl)pyridin-4-yl)oxy)benzyl)oxy)-9a-ethyl-6,7,8,9,9a,10-hexahydro-1H-pyrido[1′,2′:3,4]imidazo [1,2-c]pyrimidin-1-one], the IC50 amounted to 23.4 nM.

Consider `CCC12CCCCN1c1cc(OCc3cc(F)c(Oc4ccc(C(F)(F)F)nc4)c(F)c3)nc(=O)n1C2` (centres unmarked) [Example 76, 3-((3,5-difluoro-4-((6-(trifluoromethyl)pyridin-3-yl)oxy)benzyl)oxy)-9a-ethyl-6,7,8,9,9a,10-hexahydro-1H-pyrido[1′,2′:3,4]imidazo [1,2-c]pyrimidin-1-one], for which the IC50 is 42.2 nM.

Consider `CCC12CCCCN1c1cc(OCc3ccc(Oc4cccc(C(F)(F)F)c4)c(C#N)c3)nc(=O)n1C2` (centres unmarked) [Example 77, 5-(((9a-ethyl-1-oxo-6,7,8,9,9a,10-hexahydro-1H-pyrido[1′,2′:3,4]imidazo [1,2-c]pyrimidin-3-yl)oxy)methyl)-2-(3-(trifluoromethyl)phenoxy) benzonitrile], for which the IC50 stood at 5.7 nM.

Take `CC12COCCN1c1cc(OCc3cc(F)c(Oc4ccnc(C(F)(F)F)c4)c(F)c3)nc(=O)n1C2` (centres unmarked) [Example 78, 7-((3,5-difluoro-4-((2-(trifluoromethyl)pyridin-4-yl)oxy)benzyl)oxy)-11a-methyl-3,4,11,11a-tetrahydro-1H,9H-pyrimido[6′,1′:2,3]imidazo [5,1-c][1,4]oxazin-9-one]: the IC50 turned out to be 5 nM.

Turning to `Cc1cc(Oc2c(F)cc(COc3cc4n(c(=O)n3)CC3(C)COCCN43)cc2F)ccn1` (centres unmarked) [Example 79, 7-((3,5-difluoro-4-((2-methyl-pyridin-4-yl)oxy)benzyl)oxy)-11a-methyl-3,4,11,11a-tetrahydro-1H,9H-pyrimido[6′,1′:2,3]imidazo [5,1-c][1,4]oxazin-9-one], the IC50 is 6.1 nM.

For `CC12COCCN1c1cc(OCc3cc(F)c(Oc4cncc(C(F)(F)F)c4)c(F)c3)nc(=O)n1C2` (centres unmarked) [Example 80, 7-((3,5-difluoro-4-((5-(trifluoromethyl)pyridin-3-yl)oxy)benzyl)oxy)-11a-methyl-3,4,11,11a-tetrahydro-1H,9H-pyrimido[6′,1′:2,3]imidazo [5,1-c][1,4]oxazin-9-one], the IC50 stood at 3.3 nM.

As for `CC12COCCN1c1cc(OCc3cc(F)c(Oc4ccc(C(F)(F)F)nc4)c(F)c3)nc(=O)n1C2` (centres unmarked) [Example 81, 7-((3,5-difluoro-4-((6-(trifluoromethyl)pyridin-3-yl)oxy)benzyl)oxy)-11a-methyl-3,4,11,11a-tetrahydro-1H,9H-pyrimido[6′,1′:2,3]imidazo [5,1-c][1,4]oxazin-9-one], the IC50 was determined as 5.1 nM.

With `CC12COCCN1c1cc(OCc3cc(F)c(Oc4ccc(Cl)c(C(F)(F)F)c4)c(F)c3)nc(=O)n1C2` (centres unmarked) [Example 82, 7-((4-(4-chloro-3-(trifluoromethyl)phenoxy)-3,5-difluorobenzyl)oxy)-11a-methyl-3,4,11,11a-tetrahydro-1H,9H-pyrimido[6′,1′:2,3]imidazo [5,1-c][1,4]oxazin-9-one], the IC50 was 2 nM.

As for `CC12COCCN1c1cc(OCc3ccc(Oc4cc(C#N)cc(C(F)(F)F)c4)c(F)c3)nc(=O)n1C2` (centres unmarked) [Example 83], the IC50 is 4.9 nM.

As to `CC12COCCN1c1cc(OCc3ccc(Oc4ccc(Cl)c(C(F)(F)F)c4)c(C#N)c3)nc(=O)n1C2` (centres unmarked) [Example 84], the IC50 is 6.2 nM.

As to `CC12COCCN1c1cc(OCc3ccc(Oc4cccc(C(F)(F)F)c4)c(C#N)c3)nc(=O)n1C2` (centres unmarked) [Example 85], the IC50 came to 6.7 nM.

Take `CC12COCCN1c1cc(OCc3cc(F)c(F)c(F)c3)nc(=O)n1C2` (centres unmarked) [Example 86]: the IC50 was determined as 6.1 nM.

For `O=c1nc(OCc2cc(F)c(Oc3ccnc(C(F)(F)F)c3)c(F)c2)c(F)c2n1C[C@]13CO[C@H](CN21)C3` [Example 88, (3S,11aR)-7-((3,5-difluoro-4-((2-(trifluoromethyl)pyridin-4-yl)oxy)benzyl)oxy)-6-fluoro-3,4-dihydro-1H,9H,11H-3,11a-methanopyrimido[6′,1′:2,3] imidazo[5,1-c][1,4]oxazin-9-one], the IC50 amounted to 5.2 nM.

Take `Cc1cc(Oc2c(F)cc(COc3nc(=O)n4c(c3F)N3C[C@@H]5C[C@]3(CO5)C4)cc2F)ccn1` [Example 89, (3S,11aR)-7-((3,5-difluoro-4-((2-methyl-pyridin-4-yl)oxy)benzyl)oxy)-6-fluoro-3,4-dihydro-1H,9H,11H-3,11a-methanopyrimido[6′,1′:2,3] imidazo[5,1-c][1,4]oxazin-9-one]: the IC50 worked out at 10.9 nM.

For the compound `N#Cc1cc(Oc2ccc(COc3nc(=O)n4c(c3F)N3C[C@@H]5C[C@]3(CO5)C4)cc2F)cc(C(F)(F)F)c1` [Example 90], the IC50 came out at 4.8 nM.

With `O=c1nc(OCc2cc(F)c(Oc3ccnc(C(F)(F)F)c3)c(F)c2)c(Cl)c2n1C[C@]13CO[C@H](CN21)C3` [Example 91, (3S,11aR)-7-((3,5-difluoro-4-((2-(trifluoromethyl)pyridin-4-yl)oxy)benzyl)oxy)-6-chloro-3,4-dihydro-1H,9H,11H-3,11a-methanopyrimido[6′,1′:2,3] imidazo[5,1-c][1,4]oxazin-9-one], the IC50 is 4.8 nM.

Consider `Cc1c(OCc2cc(F)c(Oc3ccnc(C(F)(F)F)c3)c(F)c2)nc(=O)n2c1N1C[C@@H]3C[C@]1(CO3)C2` [Example 92, (3S,11aR)-7-((3,5-difluoro-4-((2-(trifluoromethyl)pyridin-4-yl)oxy)benzyl)oxy)-6-methyl-3,4-dihydro-1H,9H,11H-3,11a-methanopyrimido[6′,1′:2,3] imidazo[5,1-c][1,4]oxazin-9-one], for which the IC50 was 5.6 nM.

Take `[2H]C1([2H])n2c(cc(OCc3cc(F)c(Oc4ccnc(C(F)(F)F)c4)c(F)c3)nc2=O)N2C[C@@H]3C[C@@]21CO3` [Example 93]: the IC50 came to 3.7 nM.

`Cn1cc(Oc2c(F)cc(COc3cc4n(c(=O)n3)CC35CC(CN43)C5)cc2F)cn1` [Example 94, 3-((3,5-difluoro-4-((1-methyl-1H-pyrazol-4-yl)oxy)benzyl)oxy)-7,8-dihydro-1H,6H,9H-7,8a-methanopyrrolo[1′,2′:3,4] imidazo[1,2-c]pyrimidin-1-one]: the IC50 is 92.7 nM.

On to `N#Cc1cc(Oc2ccc(COc3cc4n(c(=O)n3)CC35CC(CN43)C5)cc2F)cc(C(F)(F)F)c1` [Example 95], for which the IC50 was found to be 7.4 nM.

Turning to `O=c1nc(OCc2ccc(Oc3ccnc(C(F)(F)F)c3)cc2F)cc2n1C[C@]13CO[C@H](CN21)C3` [Example 96, (3S,11aR)-7-((2-difluoro-4-((2-(trifluoromethyl)pyridin-4-yl)oxy)benzyl)oxy)-3,4-dihydro-1H,9H,11H-3,11a-methanopyrimido[6′1′:2,3] imidazo[5,1-c][1,4]oxazin-9-one], the IC50 came out at 4.7 nM.

Consider `O=c1nc(OCc2ccc(F)c(F)c2)cc2n1CC13CC(CN21)C3` [Example 97, 3-((3,4-difluorobenzyl)oxy)-7,8-dihydro-1H,6H,9H-7,8a-methanopyrrolo[1′,2′:3,4] imidazo[1,2-c]pyrimidin-1-one], for which the IC50 was 14.2 nM.

Turning to `O=c1nc(OCc2cc(F)c(F)c(F)c2)cc2n1CC13CC(CN21)C3` [Example 98, 3-((3,4,5-trifluorobenzyl)oxy)-7,8-dihydro-1H,6H,9H-7,8a-methanopyrrolo[1′,2′:3,4] imidazo[1,2-c]pyrimidin-1-one], the IC50 is 30.2 nM.

On to `O=c1nc(OCCc2cc(F)c(Oc3ccnc(C(F)(F)F)c3)c(F)c2)cc2n1C[C@]13CO[C@H](CN21)C3` [Example 99, (3S,11aR)-7-(3,5-difluoro-4-((2-(trifluoromethyl)pyridin-4-yl)oxy)phenethoxy)-3,4-dihydro-1H,9H,11H-3,11a-methanopyrimido[6′-,1′:2,3] imidazo[5,1-c][1,4]oxazin-9-one], for which the IC50 stood at 5.6 nM.

Take `O=c1nc(OCCc2ccc(Oc3ccnc(C(F)(F)F)c3)cc2)cc2n1C[C@]13CO[C@H](CN21)C3` [Example 100, (3S,11aR)-7-(4-(2-(trifluoromethyl)pyridin-4-yloxy)phenethoxy)-3,4-dihydro-1H,9H,11H-3,11a-methanopyrimido[6′-,1′:2,3] imidazo[5,1-c][1,4]oxazin-9-one]: the IC50 came to 5.9 nM.

On to `N#Cc1cc(CCOc2cc3n(c(=O)n2)C[C@]24CO[C@H](CN32)C4)ccc1Oc1ccnc(C(F)(F)F)c1` [Example 101, 5-(2-(((3S,11aR)-9-oxo-3,4-dihydro-1H,9H,11H-3,11a-methanopyrimido[6′-,1′:2,3]imidazo[5,1-c][1,4]oxazin-7-yl)oxy)ethyl)-2-((2-(trifluoromethyl)pyridin-4-yl)oxy)benzonitrile], for which the IC50 came to 15.1 nM.
